Earlier results in article PMC7756498 (Chemistry (Weinheim an Der Bergstrasse, Germany), 2020).

Tested on: P. aeruginosa
Details: ref [18]

## sansanmycin B [sansanmycin B 13]
  MIC (anti-Pseudomonas activity): 4 to 16 µg/mL
